Columns and labels:
Assay in all cases: KINOMEscan
Type in all cases: binding
Details in all cases: read-out: % control activity remaining
[1] = molecular target: T1, KIT(V559D,V654A) (Homo sapiens, UniProt P10721, V559D/V654A)
T1 construct: purchased Eurofins DiscoverX KINOMEscan

[2] = molecular target: T2, ALK(C1156Y) (Homo sapiens, UniProt Q9UM73, C1156Y)
T2 construct: purchased Eurofins DiscoverX KINOMEscan

[3] = molecular target: T3, INSRR (Homo sapiens, UniProt P14616)
T3 construct: purchased Eurofins DiscoverX KINOMEscan

[4] = molecular target: T4, ABL1(T315I)-nonphosphorylated (Homo sapiens, UniProt P00519, T315I)
T4 construct: purchased Eurofins DiscoverX KINOMEscan

[5] = molecular target: T5, NEK7 (Homo sapiens, UniProt Q8TDX7)
T5 construct: purchased Eurofins DiscoverX KINOMEscan

[6] = molecular target: T6, EGFR(G719C) (Homo sapiens, UniProt P00533, G719C)
T6 construct: purchased Eurofins DiscoverX KINOMEscan

[7] = molecular target: T7, GSK3A (Homo sapiens, UniProt P49840)
T7 construct: purchased Eurofins DiscoverX KINOMEscan

[8] = molecular target: T8, ASK2 (Homo sapiens, UniProt O95382)
T8 construct: purchased Eurofins DiscoverX KINOMEscan
T8 sequence (O95382 1-1288): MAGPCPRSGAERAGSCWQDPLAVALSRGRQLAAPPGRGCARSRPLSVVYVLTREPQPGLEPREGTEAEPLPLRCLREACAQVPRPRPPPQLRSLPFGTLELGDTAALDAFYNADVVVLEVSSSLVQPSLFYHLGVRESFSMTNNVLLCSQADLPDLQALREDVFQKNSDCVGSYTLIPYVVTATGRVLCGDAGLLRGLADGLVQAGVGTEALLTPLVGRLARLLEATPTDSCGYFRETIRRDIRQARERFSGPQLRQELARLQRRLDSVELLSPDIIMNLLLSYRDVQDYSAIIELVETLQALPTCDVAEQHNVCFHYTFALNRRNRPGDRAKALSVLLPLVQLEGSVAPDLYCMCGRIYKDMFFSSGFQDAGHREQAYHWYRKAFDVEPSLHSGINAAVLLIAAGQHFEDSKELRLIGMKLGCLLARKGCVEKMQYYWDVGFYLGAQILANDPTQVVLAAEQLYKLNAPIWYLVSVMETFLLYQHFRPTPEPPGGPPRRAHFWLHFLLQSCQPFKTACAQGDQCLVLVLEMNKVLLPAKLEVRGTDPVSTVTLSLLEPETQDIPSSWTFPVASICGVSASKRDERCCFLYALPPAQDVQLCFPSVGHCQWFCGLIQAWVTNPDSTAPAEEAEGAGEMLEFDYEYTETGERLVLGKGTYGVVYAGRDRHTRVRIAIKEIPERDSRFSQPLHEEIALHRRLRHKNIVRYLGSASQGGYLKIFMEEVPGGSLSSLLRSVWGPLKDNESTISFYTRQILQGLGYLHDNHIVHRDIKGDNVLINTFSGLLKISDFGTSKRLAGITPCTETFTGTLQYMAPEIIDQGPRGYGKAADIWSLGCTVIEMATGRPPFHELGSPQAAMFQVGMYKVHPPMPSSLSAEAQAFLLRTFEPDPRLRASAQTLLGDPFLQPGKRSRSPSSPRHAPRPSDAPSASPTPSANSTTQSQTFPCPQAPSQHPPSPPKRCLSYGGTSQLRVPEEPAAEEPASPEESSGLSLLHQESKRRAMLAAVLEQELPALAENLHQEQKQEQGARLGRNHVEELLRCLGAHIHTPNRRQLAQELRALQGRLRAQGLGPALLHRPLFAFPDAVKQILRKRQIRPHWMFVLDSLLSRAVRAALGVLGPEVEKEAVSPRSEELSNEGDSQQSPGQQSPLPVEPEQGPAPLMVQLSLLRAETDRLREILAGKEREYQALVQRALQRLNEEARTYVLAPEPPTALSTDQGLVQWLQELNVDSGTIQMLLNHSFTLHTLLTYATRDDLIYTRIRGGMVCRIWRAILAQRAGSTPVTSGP

[9] = molecular target: T9, IRAK1 (Homo sapiens, UniProt P51617)
T9 construct: purchased Eurofins DiscoverX KINOMEscan

[10] = molecular target: T10, FLT3(N841I) (Homo sapiens, UniProt P36888, N841I)
T10 construct: purchased Eurofins DiscoverX KINOMEscan
T10 sequence (P36888 27-993 N841I): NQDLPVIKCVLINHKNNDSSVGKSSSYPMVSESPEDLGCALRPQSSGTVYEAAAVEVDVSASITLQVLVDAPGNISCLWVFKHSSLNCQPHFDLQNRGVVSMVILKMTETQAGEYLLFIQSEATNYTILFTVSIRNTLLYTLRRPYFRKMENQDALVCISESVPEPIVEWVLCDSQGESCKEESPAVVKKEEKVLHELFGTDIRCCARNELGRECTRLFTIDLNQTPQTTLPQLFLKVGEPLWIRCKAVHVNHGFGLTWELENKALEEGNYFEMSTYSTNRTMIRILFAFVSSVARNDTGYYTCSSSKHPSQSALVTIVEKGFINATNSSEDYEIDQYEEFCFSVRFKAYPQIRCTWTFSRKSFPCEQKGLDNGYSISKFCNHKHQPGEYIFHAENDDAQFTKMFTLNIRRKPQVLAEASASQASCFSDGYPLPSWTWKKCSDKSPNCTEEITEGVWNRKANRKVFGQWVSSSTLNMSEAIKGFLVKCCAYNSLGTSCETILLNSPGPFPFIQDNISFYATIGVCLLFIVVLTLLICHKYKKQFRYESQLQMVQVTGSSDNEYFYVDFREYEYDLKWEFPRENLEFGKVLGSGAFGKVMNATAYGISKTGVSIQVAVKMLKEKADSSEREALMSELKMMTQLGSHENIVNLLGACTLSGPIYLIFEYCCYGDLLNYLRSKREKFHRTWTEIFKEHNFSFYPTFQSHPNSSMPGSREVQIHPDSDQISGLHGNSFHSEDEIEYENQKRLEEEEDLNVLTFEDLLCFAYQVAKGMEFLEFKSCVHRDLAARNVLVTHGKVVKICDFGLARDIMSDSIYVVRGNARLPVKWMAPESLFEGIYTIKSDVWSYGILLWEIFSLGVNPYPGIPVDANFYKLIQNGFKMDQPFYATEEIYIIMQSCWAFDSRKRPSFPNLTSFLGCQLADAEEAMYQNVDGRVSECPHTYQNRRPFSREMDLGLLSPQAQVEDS

[11] = molecular target: T11, PIK3CA(M1043I) (Homo sapiens, UniProt P42336, M1043I)
T11 construct: purchased Eurofins DiscoverX KINOMEscan
T11 sequence (P42336 whole entry M1043I): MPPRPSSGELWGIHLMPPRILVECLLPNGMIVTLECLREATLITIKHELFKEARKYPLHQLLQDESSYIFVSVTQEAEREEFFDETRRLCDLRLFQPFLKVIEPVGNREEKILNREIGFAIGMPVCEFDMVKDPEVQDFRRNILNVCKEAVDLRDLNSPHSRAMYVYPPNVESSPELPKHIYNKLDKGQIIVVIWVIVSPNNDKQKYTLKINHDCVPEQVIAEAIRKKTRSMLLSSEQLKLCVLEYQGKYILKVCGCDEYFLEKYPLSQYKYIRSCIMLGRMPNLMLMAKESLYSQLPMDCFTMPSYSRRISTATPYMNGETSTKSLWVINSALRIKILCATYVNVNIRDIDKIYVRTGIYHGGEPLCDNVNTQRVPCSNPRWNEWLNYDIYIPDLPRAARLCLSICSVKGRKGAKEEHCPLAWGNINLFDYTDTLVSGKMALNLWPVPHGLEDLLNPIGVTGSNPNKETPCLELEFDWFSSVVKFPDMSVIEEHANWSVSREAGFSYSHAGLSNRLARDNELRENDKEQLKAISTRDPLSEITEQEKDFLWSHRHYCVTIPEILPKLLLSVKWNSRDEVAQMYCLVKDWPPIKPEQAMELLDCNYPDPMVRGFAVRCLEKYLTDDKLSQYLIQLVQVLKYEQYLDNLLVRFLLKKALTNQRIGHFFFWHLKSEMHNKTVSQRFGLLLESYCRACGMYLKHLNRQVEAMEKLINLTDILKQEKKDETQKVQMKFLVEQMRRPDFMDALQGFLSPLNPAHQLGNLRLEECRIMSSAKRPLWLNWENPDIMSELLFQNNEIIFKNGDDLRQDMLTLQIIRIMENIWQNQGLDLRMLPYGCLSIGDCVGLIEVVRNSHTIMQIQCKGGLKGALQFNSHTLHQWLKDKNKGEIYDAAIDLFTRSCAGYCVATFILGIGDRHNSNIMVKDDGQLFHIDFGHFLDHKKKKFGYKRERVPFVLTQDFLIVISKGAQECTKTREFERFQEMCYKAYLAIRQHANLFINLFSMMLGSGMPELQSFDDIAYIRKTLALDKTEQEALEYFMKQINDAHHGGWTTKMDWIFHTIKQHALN

T7 sequence (P49840 whole entry): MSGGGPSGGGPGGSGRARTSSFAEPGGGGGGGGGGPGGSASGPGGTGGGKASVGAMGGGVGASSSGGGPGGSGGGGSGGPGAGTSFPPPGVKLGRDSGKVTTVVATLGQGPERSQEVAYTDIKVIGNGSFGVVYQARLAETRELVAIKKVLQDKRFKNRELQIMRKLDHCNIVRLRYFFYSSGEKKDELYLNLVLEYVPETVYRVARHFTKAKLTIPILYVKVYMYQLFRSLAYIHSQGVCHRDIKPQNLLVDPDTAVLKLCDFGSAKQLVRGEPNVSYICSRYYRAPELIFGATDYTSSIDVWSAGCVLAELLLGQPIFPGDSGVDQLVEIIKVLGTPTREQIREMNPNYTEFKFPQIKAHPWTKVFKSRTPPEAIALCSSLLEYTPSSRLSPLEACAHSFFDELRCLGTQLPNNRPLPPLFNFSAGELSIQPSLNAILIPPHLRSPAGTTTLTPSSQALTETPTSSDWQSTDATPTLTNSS
T9 sequence (P51617 whole entry): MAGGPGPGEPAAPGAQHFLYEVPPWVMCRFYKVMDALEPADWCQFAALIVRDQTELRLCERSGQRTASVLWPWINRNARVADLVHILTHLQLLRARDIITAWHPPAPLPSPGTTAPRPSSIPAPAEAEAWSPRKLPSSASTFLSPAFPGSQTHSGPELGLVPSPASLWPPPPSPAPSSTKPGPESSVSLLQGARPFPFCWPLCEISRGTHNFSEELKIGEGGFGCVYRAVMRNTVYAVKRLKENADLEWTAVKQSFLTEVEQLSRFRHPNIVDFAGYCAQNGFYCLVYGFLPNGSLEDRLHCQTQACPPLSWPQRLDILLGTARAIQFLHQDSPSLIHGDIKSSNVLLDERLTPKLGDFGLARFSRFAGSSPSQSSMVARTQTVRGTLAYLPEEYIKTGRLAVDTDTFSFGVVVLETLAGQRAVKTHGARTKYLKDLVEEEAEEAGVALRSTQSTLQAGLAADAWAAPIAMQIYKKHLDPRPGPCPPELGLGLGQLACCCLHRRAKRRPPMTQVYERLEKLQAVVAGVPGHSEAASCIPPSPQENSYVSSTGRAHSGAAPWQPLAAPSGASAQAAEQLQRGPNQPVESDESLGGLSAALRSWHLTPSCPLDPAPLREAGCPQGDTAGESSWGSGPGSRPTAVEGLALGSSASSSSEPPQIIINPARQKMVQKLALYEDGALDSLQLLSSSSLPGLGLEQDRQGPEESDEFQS
T2 sequence (Q9UM73 19-1620 C1156Y): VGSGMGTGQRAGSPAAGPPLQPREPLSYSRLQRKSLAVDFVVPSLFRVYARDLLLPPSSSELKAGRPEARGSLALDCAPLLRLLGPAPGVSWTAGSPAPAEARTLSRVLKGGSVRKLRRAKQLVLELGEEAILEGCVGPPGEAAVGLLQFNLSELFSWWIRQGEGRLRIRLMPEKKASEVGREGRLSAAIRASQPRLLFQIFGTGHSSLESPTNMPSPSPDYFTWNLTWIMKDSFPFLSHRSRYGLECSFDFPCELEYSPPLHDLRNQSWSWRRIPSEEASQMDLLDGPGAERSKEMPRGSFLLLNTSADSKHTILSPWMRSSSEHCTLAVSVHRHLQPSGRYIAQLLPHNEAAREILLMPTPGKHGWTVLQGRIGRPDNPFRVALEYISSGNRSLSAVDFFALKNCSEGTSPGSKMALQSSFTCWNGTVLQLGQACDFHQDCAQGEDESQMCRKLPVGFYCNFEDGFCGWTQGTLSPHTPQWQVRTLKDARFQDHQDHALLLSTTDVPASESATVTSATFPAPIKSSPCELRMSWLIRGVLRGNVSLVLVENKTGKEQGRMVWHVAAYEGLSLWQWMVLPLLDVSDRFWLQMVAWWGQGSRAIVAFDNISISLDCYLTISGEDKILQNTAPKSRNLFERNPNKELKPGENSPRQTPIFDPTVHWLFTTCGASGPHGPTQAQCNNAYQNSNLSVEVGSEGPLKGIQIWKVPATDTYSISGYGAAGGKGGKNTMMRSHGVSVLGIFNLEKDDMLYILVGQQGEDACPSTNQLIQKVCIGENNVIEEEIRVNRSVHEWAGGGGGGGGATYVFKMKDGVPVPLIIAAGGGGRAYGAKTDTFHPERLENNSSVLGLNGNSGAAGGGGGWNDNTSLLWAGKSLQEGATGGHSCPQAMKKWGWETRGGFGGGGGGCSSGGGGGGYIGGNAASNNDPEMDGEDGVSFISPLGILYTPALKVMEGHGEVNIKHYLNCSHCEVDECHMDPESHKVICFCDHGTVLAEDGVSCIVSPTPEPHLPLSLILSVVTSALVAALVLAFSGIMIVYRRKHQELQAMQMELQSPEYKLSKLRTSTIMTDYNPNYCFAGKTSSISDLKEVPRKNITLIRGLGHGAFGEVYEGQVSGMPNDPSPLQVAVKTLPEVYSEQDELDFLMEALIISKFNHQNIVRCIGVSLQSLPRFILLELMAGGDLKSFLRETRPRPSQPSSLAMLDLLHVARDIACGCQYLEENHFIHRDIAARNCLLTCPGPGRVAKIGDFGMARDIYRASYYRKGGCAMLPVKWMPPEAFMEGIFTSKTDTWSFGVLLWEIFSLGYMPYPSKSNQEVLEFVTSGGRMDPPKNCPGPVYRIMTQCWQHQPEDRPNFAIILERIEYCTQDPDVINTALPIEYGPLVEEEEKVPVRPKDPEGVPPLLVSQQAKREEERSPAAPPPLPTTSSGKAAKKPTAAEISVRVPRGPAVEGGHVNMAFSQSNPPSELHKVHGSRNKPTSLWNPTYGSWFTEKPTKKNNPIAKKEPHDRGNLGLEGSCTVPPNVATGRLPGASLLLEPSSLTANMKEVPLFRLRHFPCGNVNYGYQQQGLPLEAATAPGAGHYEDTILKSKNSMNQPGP
T1 sequence (P10721 26-976 V559D/V654A): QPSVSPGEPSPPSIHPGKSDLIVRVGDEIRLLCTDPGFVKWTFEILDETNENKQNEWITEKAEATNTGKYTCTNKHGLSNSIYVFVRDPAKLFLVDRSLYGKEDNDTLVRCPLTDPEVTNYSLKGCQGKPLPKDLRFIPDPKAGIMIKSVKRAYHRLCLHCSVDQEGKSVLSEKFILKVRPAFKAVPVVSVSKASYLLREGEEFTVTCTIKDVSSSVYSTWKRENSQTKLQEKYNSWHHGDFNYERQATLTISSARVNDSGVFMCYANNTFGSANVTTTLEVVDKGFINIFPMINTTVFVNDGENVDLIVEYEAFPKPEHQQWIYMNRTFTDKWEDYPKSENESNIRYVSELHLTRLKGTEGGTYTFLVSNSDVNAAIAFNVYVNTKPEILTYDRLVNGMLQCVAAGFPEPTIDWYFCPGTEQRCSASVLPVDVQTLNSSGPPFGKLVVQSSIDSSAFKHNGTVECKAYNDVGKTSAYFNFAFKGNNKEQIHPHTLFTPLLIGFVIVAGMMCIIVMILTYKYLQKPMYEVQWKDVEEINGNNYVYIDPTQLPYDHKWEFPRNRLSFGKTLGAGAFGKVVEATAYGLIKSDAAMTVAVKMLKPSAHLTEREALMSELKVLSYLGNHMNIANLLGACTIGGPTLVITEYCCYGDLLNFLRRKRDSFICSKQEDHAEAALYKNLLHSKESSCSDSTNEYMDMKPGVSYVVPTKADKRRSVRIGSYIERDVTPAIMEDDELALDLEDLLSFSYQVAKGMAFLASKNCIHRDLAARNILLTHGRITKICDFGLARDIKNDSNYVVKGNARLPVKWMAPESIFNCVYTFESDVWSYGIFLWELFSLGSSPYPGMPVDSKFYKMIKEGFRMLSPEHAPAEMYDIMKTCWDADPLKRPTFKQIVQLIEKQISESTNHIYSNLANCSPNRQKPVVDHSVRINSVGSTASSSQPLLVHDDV

| SMILES | remaining binding at 1 µM [1] | remaining binding at 1 µM [2] | remaining binding at 1 µM [3] | remaining binding at 1 µM [4] | remaining binding at 1 µM [5] | remaining binding at 1 µM [6] | remaining binding at 1 µM [7] | remaining binding at 1 µM [8] | remaining binding at 1 µM [9] | remaining binding at 1 µM [10] | remaining binding at 1 µM [11] |
| --- | --- | --- | --- | --- | --- | --- | --- | --- | --- | --- | --- |
| CN1CCC(CNc2cc(Cl)nn3c(-c4cc5nc(Nc6ccccc6)[nH]c5cc4F)cnc23)CC1 [compound 31, 6-Chloro-3-(6-fluoro-2-(phenylamino)-1H-benzo[d]imidazol-5-yl)-N-((1-methylpiperidin-4-yl)methyl)imidazo[1,2-b]pyridazin-8-amine] | 27% | 91% | 100% | 71% | 94% | 71% | 84% | 100% | 89% | 96% | 78% |
| O=C(CN1CCOCC1)N[C@H]1CC[C@H](Nc2cc(Cl)nn3c(-c4ccc5[nH]ncc5c4)cnc23)CC1 [compound 26] | 0.7% | 64% | 85% | 38% | 99% | 93% | 100% | 96% | 45% | 0% | 81% |
| Clc1cc(NCC2CC2)c2ncc(-c3ccc4[nH]ncc4c3)n2n1 [compound 2, 6-Chloro-N-(cyclopropylmethyl)-3-(1H-indazol-5-yl)imidazo[1,2-b]pyridazin-8-amine] | 7.8% | 88% | 96% | 76% | 97% | 91% | 93% | 83% | 95% | 7.5% | 59% |
